{
  "source": "patent US9550821B2",
  "about": "“Modulation of ghrelin levels and ghrelin/unacylated ghrelin ratio using unacylated ghrelin” (ALIZÉ PHARMA SAS, priority 2012, dated 2017)",
  "key": {"[1]": {"test": "Safety evaluation during overnight UAG infusion in T2DM subjects", "assay_type": "in vivo, human", "experimental": "(§1) A continuous overnight (15 hours) infusion of two doses of UAG (3 μg UAG/kg/hr and 10 μg UAG/kg/hr) versus placebo in a cross-over model on the AG concentrations was performed in eight overweight subjects with type 2 diabetes. FIG. 1 depicts a schematic representation of the study protocol. Glucose and insulin responses to a standard breakfast meal (SBM) in the subjects and reasonable metabolic control were assessed.\nStandard breakfast meal (SBM) consisted of: • 3 slices wheat bread; • 3 portions of margarine; • 2 slices of cheese (48% fat); • 1 portion of jam; • 1 cup of whole milk; and • 1 boiled egg; for a total of 714 kcal (17% proteins; 46% fat; and 37% carbohydrates). […] At each of the 3 visits, the following safety parameters were assessed: hemoglobin, hematocrit, platelet count, WBC count, RBC count, and differential and were determined using Sysmex XE 2100, Firma Sysmex, Ecustraat 11, 4879 NP Etten-Leur. AST, ALT, alkaline phosphatase, total bilirubin, creatine phophokinase (CPK), lactate dehydrogenase (LDH), creatinine, urea, amylase, lipase, uric acid, glucose, cholesterol, LDL, HDL, triglycerides, sodium, potassium, calcium, chloride, protein and albumin are determined using the Hitachi Modular P800, Roche Transistorstraat 41, 1332 CK Almere. […] AG and UAG levels were assessed before the start of the overnight infusion, 10 minutes before the start and 30 minutes after the SBM. […]"}, "[2]": {"test": "Overnight (15 hours) UAG infusion in T2DM subjects: serum UAG levels by MSD ELISA", "assay_type": "in vivo, human", "conditions": "placebo 105.9±31.4", "experimental": "as §1\nSingle-center, investigator initiated, double blind and placebo controlled randomized study. During the first visit medical history, medication use and vital signs of subjects were checked. Blood samples were also taken for chemistry and hematology analysis. […]\nInfusions were performed at the local clinical research unit for 15 hours from 9 pm to […]. […] The dose was calculated based on the subject's weight. […]\nStandard breakfast meal (SBM) consisted of: • 3 slices wheat bread; • 3 portions of margarine; • 2 slices of cheese (48% fat); • 1 portion of jam; • 1 cup of whole milk; and • 1 boiled egg; for a total of 714 kcal (17% proteins; 46% fat; and 37% carbohydrates). […] At each of the 3 visits, the following safety parameters were assessed: hemoglobin, hematocrit, platelet count, WBC count, RBC count, and differential and were determined using Sysmex XE 2100, Firma Sysmex, Ecustraat 11, 4879 NP Etten-Leur. […]"}, "[3]": {"system": "glucose, insulin and lipid metabolisms", "conditions": "cited from earlier work; for retention of UAG full length activity on glucose, insulin and lipid metabolisms: from U.S. Pat. Nos. 8,222,217 and 8,318,664; for smallest UAG fragment retaining UAG biological activity: from U.S. Pat. Nos. 8,222,217, 8,318,664 and WO/2008/145749"}, "AG-induced food intake": {"system": "AG-induced food intake", "test": "AG-induced food intake in rats", "assay_type": "in vivo, Sprague-Dawley rats", "conditions": "rat, i.p. 42 μg/kg together with AG 13 μg/kg; food intake at 30 min, 1 h, 2 h", "experimental": "With respect to the experimental data presented in FIG. 8, Sprague-Dawley rats of 7 weeks of age, weighing between 275 g and 300 g, were fed a pellet diet ad libitum and were singly housed in plastic cage. The experiment was performed at 2.5 h after the onset of the light cycle in freely fed rats. The rates were i.p. injected simultaneously with vehicle plus vehicle, vehicle+AG (13 μg/kg) or cyclised UAG (6-13) (SEQ ID NO: 25) (42 μg/kg)+AG (13 μg/kg). Immediately after the completion of the i.p. injection in rats, the night-ad-libitum food was removed and replaced by 2 pellets for each animal, previously weighed, placed into the top of the cage. Food intake was calculated as the difference between the food weight before and after the feeding period at each time interval (30 min, 1 h, and 2 h). Cumulative food intake was calculated by summating the values of the different time periods."}},
  "note": "Where no end group is shown, it is not given here.",
  "data": [
    {"compound": "CC(C)C[C@H](NC(=O)[C@H](CCCCN)NC(=O)[C@H](C)NC(=O)[C@@H]1CCCN1C(=O)[C@@H]1CCCN1C(=O)[C@H](CCCCN)NC(=O)[C@H](CCCCN)NC(=O)[C@H](CO)NC(=O)[C@H](CCC(=O)O)NC(=O)[C@H](CCCCN)NC(=O)[C@H](CCCNC(=N)N)NC(=O)[C@H](CCC(N)=O)NC(=O)[C@H](CCC(N)=O)NC(=O)[C@@H](NC(=O)[C@H](CCCNC(=N)N)NC(=O)[C@H](CCC(N)=O)NC(=O)[C@H](Cc1cnc[nH]1)NC(=O)[C@H](CCC(=O)O)NC(=O)[C@@H]1CCCN1C(=O)[C@H](CO)NC(=O)[C@H](CC(C)C)NC(=O)[C@H](Cc1ccccc1)NC(=O)[C@H](CO)NC(=O)[C@H](CO)NC(=O)CN)C(C)C)C(=O)N[C@@H](CCC(N)=O)C(=O)N1CCC[C@H]1C(=O)N[C@@H](CCCNC(=N)N)C(=O)O", "note": "[UAG]", "values": [
      {"measurement": "laboratory evaluations", "setting": "[1]; 3 and 10 μg UAG/kg/hr overnight infusion", "value": "no significant changes in chemistry or parameters"},
      {"measurement": "side effects reported by subjects", "setting": "[1]; 3 and 10 μg UAG/kg/hr overnight infusion vs placebo", "value": "did not report more side effects than placebo"},
      {"measurement": "serum UAG levels before start of the SBM (mean±SD)", "setting": "[2]; 3 mcg/kg·hr UAG overnight infusion", "value": "10998 ± 2623", "unit": "pg/mL"},
      {"measurement": "serum UAG levels before start of the SBM (mean±SD)", "setting": "[2]; 10 mcg/kg·hr UAG overnight infusion", "value": "12085 ± 1616", "unit": "pg/mL"}
    ]},
    {"compound": "EHQRVQ [UAG (8-13)]", "values": [
      {"measurement": "retention of UAG full length activity on glucose, insulin and lipid metabolisms", "setting": "[3]", "value": "retain the activity of UAG full length"}
    ]},
    {"compound": "Glu-His-Gln-Arg (EHQR; listed as Homo sapiens) [UAG (8-11)]", "values": [
      {"measurement": "smallest UAG fragment retaining UAG biological activity", "setting": "[3]", "value": "smallest UAG fragment to retain UAG activities"},
      {"measurement": "retention of UAG full length activity on glucose, insulin and lipid metabolisms", "setting": "[3]", "value": "retain the activity of UAG full length"}
    ]},
    {"compound": "Glu-His-Gln-Arg-Val (EHQRV; listed as Homo sapiens) [UAG (8-12)]", "values": [
      {"measurement": "retention of UAG full length activity on glucose, insulin and lipid metabolisms", "setting": "[3]", "value": "retain the activity of UAG full length"}
    ]},
    {"compound": "His-Gln-Arg (HQR; listed as Homo sapiens) [UAG (9-11)]", "values": [
      {"measurement": "retention of UAG full length activity on glucose, insulin and lipid metabolisms", "setting": "[3]", "value": "retain the activity of UAG full length"}
    ]},
    {"compound": "His-Gln-Arg-Val (HQRV; listed as Homo sapiens) [UAG (9-12)]", "values": [
      {"measurement": "smallest UAG fragment retaining UAG biological activity", "setting": "[3]", "value": "smallest UAG fragment to retain the biological activity of UAG"},
      {"measurement": "retention of UAG full length activity on glucose, insulin and lipid metabolisms", "setting": "[3]", "value": "retain the activity of UAG full length"}
    ]},
    {"compound": "SPEHQRVQ [UAG (6-13)]", "values": [
      {"measurement": "retention of UAG full length activity on glucose, insulin and lipid metabolisms", "setting": "[3]", "value": "retain the activity of UAG full length"}
    ]},
    {"compound": "Ser-Pro-Glu-His-Gln-Arg-Val-Gln (cycl) (SPEHQRVQ; cyclised; (1)..(8) Cyclic; listed as Homo sapiens) [cyclic UAG (6-13)]", "values": [
      {"measurement": "effect on AG-induced food intake (orexigenic effect)", "setting": "AG-induced food intake", "value": "able to counteract the orexigenic effects induced by AG"}
    ]}
  ]
}
